Laboratory results published in patent EP1380291A1, “PDE IV inhibitors for treating multiple sclerosis” (Schering Aktiengesellschaft, priority 1994, dated 1995).

What was measured:
[1] = tested on: encephalitogenic CD4+ MBP-specific rat TCL (L1402); assay: TNF/LT production by an encephalitogenic MBP-specific rat T-cell line, cytotoxicity bioassay; format: cell-based
From the text: To assess the ability of rolipram alone or in various combinations as described to modify autoimmune processes, we investigated its influence on TNF production in vitro by MBP-specific T-cell lines from MS patients and Lewis rats. MBP is a major candidate antigen in MS, and T-cell-mediated immunity is of crucial importance in its pathogenesis. Similar to EAE, MBP-specific T-cells in humans are often cytotoxic, of Th1 type secreting interferon (IFN)-gamma and TNF/LT, and recognize epitopes that are also encephalitogenic in EAE.
Similar results were found using an encephalitogenic CD4+ MBP-specific rat TCL (L1402). […] Previous investigations had shown that inhibition of cAMP PDE by rolipram is stereospecific.
TNF and LT may both be produced by autoactive T-cells. CD4+ cells have been reported to be the major source of TFN in autoimmune insulitis of NOD mice. The cytokine bioassay for TNF/LT detection employed here is sensitive to TNF and LT, but is 200 times more sensitive to the former.

[2] = tested on: mouse and rat forebrain tissue; settings: in vitro and in vivo binding with 3H-rolipram; previous investigations; cited from earlier work
[3] = tested on: Experimental Allergic Encephalomyelitis (EAE); assay: Prevention of EAE by Rolipram treatment in marmosets immunized with human brain white matter homogenate; format: in vivo, Callithrix jacchus (common marmoset); settings: treatment removed on day 60 following immunization; two marmosets
[4] = tested on: Experimental Allergic Encephalomyelitis (EAE); assay: Treatment of active (chronic) EAE with Rolipram in a marmoset; format: in vivo, Callithrix jacchus (common marmoset); settings: escalating doses of Rolipram in DMSO
[5] = tested on: EAE after active immunization (aEAE); assay: EAE after active immunization (aEAE) in Lewis rats; format: in vivo; settings: drug given from the day of active immunization until day 11
Protocol: (§1) The results of our in vivo findings prompted us to perform treatment experiments in EAE after active immunization (aEAE) and adoptive cell transfer (tEAE) in Lewis rats. […] In clinically manifest EAE, treatment was started within 6 hours of the onset of symptoms. […] In tEAE similar effects were observed. […] Treatment after onset of symptoms also lead to a marked reduction in maximum severity (treated group: MMS 0.7 ± 0.10, n = 5; vehicle treated matched controls 2.45 ± 0.56, n = 5, p 0.01).
In order to distinguish further between a long-term prophylactic or a temporary suppressive effect, animals received the drug from the day of active immunization until day 11.
Histological analysis was performed on selected animals with aEAE. […] In a study on EAE, induced by myelin oligodendrocyte glycoprotein (MOG)-specific T-cells, the lack of neurological signs was ascribed to a decrease of macrophages and parenchymal inflammation, whereas perivascular inflammation and the synthesis of TNF, IFN-gamma, and interleukin-6 was clearly present. In our system, however, the timely onset of paralysis and the morphologically similar appearance of infiltrates in some of the treated animals argues against such a phenomenon. […]

[6] = tested on: EAE after adoptive cell transfer (tEAE); assay: EAE after adoptive cell transfer (tEAE) in Lewis rats; format: in vivo; settings: n = 5
Protocol: as §1

SMILES: COc1ccc(C2CNC(=O)C2)cc1OC1CCCC1 (single isomer, unassigned; (+)) [(+)-rolipram]
- EC50 ([1]; inhibition of TNF/LT production, given alone): 280 nM

SMILES: COc1ccc(C2CNC(=O)C2)cc1OC1CCCC1 (single isomer, unassigned; (-)) [(-)-rolipram]
- times more effective than the (+)-enantiomer (inhibition of TNF/LT production) [1]: 55 times
- times higher affinity than the (+)-enantiomers [2]: 15-30 times

SMILES: COc1ccc(C2CNC(=O)C2)cc1OC1CCCC1 (stereo not drawn) [Rolipram, 4-[(3-cyclopentyloxy)-4-methoxyphenyl]-2-pyrrolidinone]
- day on which clinical signs of EAE began following withdrawal of Rolipram [3]: 17 days
- day of MRI improvement following initiating Rolipram treatment [4]: 14 days
- day of marked improvement after initiating treatment [4]: 10 days
- delay of aEAE [5]: 3.5 days
- mean maximum score (MMN) ([6]; prophylactic treatment, p < 0.01 versus controls): 0.3 ± 0.11
- MMS (maximum severity) ([6]; treatment after onset of symptoms): 0.7 ± 0.10
